Measured values taken from patent US10350216B2, “Methods of treating, preventing and diagnosing leukemia and other blood diseases and disorders” (The Trustees of Columbia University in the City of New York, priority 2013, dated 2019).

Legend:
[1] = system: βcat(ex3)osb mice; test: DBZ (γ-secretase inhibitor) treatment of βcat(ex3)osb mice: blood counts, flow cytometry, histology, survival; type: in vivo
Protocol: (§1) […] DBZ is cell-permeable, selective, nontransition sate and noncompetitive inhibitor of the γ-secretase complex. DBZ was synthesized to greater than 99.9% purity as assessed by LC/MS (Syncom) and suspended in a 0.5% Methocel E4M (wt/vol, Colorcon) and 0.1% (vol/vol) Tween-80 (Sigma) solution (van Es et al., 2005). Immediately before intraperitoneal injection, DBZ was sonicated for 2 minutes to achieve a homogenous suspension.
(§2) For hematological measurements, blood was collected by cardiac puncture. Peripheral blood cell counts were performed on a FORCYTE Hematology Analyzer (Oxford Science Inc.). For morphological assessment, peripheral blood smears were stained with Wright-Giemsa stain (Sigma-Aldrich) for 10 minutes followed by rinsing in dH2O for 3 minutes. Images were taken using a 60× objective on a Leica microscope outfitted with camera.
Freshly isolated bone marrow cells and spleen cells were resuspended in flow-staining buffer (PBS plus 2% FBS) and the primary conjugated antibodies were added. After 30 minutes incubation at 4° C., the cells were then washed twice before flow cytometry analysis. The following monoclonal antibodies conjugated with fluorescein isothiocyanate (FITC), Allophycocyanin (APC) phycoerythrin (PE), PE-Cy7, APC-CY7, Pacific Blue, and Alexa 700 were used: CD117 (c-kit; 2B8), Sca-1 (D7), Mac-1α (M1/70), Gr-1(RB6-8C5), TER-119, (Ly-76) B220 (CD45R), CD19 (ID3), IgM (R6-60.2), CD3 (17A2), CD4 (RM4-5), CD8a (53-6.7), CD34 (RAM34), CD45 (30-F11), CD31 (MEC 13.3), CD16/CD32 (FcγRII/III; 2.4G2), CD135 (A2F10.1), CD150 (9D1), CD71 (C2), CD45.2 (104), CD45.1 (A20), F4/80, non-phospho (Active) β-Catenin (S33/S37/T41) antibody, IL-7Rα (SB199), Jagged-1 (C-20) and (Cell Signaling; D13A1). Seven-color flow cytometry acquisition was performed using a LSR II flow cytometer (Becton Dickinson) and analysis using FLO-JO software (Treestar, Inc). Cells were gated for size, shape and granularity using forward and side scatter parameters. The positive populations were identified as cells that expressed specific levels of fluorescence activity above the nonspecific auto fluorescence of the isotype control. Nonspecific binding was reduced by preincubation with unconjugated (2.4G2). Osteoblasts from MDS/AML patients or healthy subjects were identified as CD34−/Lin−OCN+ cells, (OCN: osteocalcin an osteoblast-specific protein used for isolation of live osteoblastic cells). For Flow sorting bone marrow, spleen and thymus cells were resuspended in flow staining buffer at 1×10^6/ml and labeled with the appropriate conjugated antibodies. After 30 minutes incubation, cells were washed twice using flow buffer. Flow sorting was performed using FACSAria (Becton Dickinson). Sorted populations were subsequently cultured or stored in RLT buffer at −80° C. for later extraction of RNA. Fluorescence intensity plots were presented in log scale. All flow cytometry data were representative of five independent experiments.
Bone marrow biopsies were fixed overnight in 10% neutral formalin solution, decalcified embedded in paraffin and sectioned at 5 μm per standard laboratory protocol. Sections were stained for β-catenin using a monoclonal antibody (1:1000, BD Transduction Lab) or for Runx2 using a polyclonal antibody (1:100 dilution, Santa Cruz) on an automated Ventana Discovery XT (Tuscon, Ariz.) platform according to manufacturer's instructions. Immune complexes formed were developed using a DAB Map Kit (Ventana, Tuscon, Ariz.). Murine long bones, spleen and liver were collected from one month old mice, fixed overnight in 10% neutral formalin solution, embedded in paraffin, sectioned at 5 μm, and stained with haematoxylin and eosin (H&E). For immunohistochemistry, specimens were incubated with CD-117 (C-kit; Abeam), CD13 (Santa Cruz) or Myeloperoxidase (MPO) antibodies after an antigen retrieval step and blocking of endogenous peroxidase with 3% H2O2. […]

[2] = system: wild type mice; test: DBZ treatment of wild type mice: peripheral blood counts and bone marrow cellularity; type: in vivo, mouse; conditions: DBZ 2 μmol/kg body weight daily for 10 days
Protocol: as §1
as §2, with “camera. […]” for “camera.”
Hematological measurements, peripheral blood morphology, flow cytometry, PCR, and histological analysis were performed as described in Example 1.

[3] = system: βcat(ex3)osb mice; test: Six-week treatment of βcat(ex3)osb mice with anti-Jagged1 antibody or DBZ (Example 17); type: in vivo
Protocol: The following endpoints are analyzed: survival, complete hematopoietic profile in the marrow, leukemia presence in peripheral blood, bone marrow, spleen and liver, potential end organ toxicity, and gene expression profiling of Notch targets Hes1, Hes5, Hey1, and Hey2, and the Hes1 targets, Cebpα and Pu.1.

[4] = system: primary, calvaria-derived osteoblasts; test: Real-time PCR of Jagged-1 and Magp-2 in primary osteoblasts treated with Wnt3a; type: cell-based, mouse; conditions: Wnt3a 50 ng/ml for 24 hours, versus vehicle
Protocol: (§3) In FIGS. 57B and C, the vehicle treated is represented by the left hand bar and the Wnt3a treated is represented by the right hand bar. n=4 replicates, *p<0.05 versus vehicle. Results are mean±SD.
(§4) Total RNA was isolated from LSK or hematopoietic cells using RNAeasy micro Plus kit (Quiagen). Total RNA from long bones was isolated using TRIzol reagent. Quantitative real-time PCR was performed using the SYBR Green Master Mix (Bio-Rad) as previously described (Rached et al., 2010a). β-Actin was used as endogenous control. Gene expression in LT-HSCs, ST-HSCs and MPPs was performed using the Power Syber Green Cells-to-CT kit (Ambion Life Technologies)
For flow cytometry analysis, osteoblasts were identified from the digested bone samples as a population of CD34^−Lin^−Ocn^+ cells, where OCN (osteocalcin) is an osteoblast-specific, non-nuclear protein commonly used for isolation of live osteoblastic cells (Eghbali-Fatourechi et al., 2005; Rubin et al., 2011; Manavalan et al., 2012). For experiments in mice, all gene expression studies were repeated using calvaria-derived cells a population rich in committed osteoblast progenitors and routinely used as osteoblast-representative. Primary murine osteoblasts were prepared from calvaria of 2 day-old pups as previously described (Ghosh-Choudhury et al., 1994; Rached et al., 2010b). […]

[5] = system: LSK cells cultured in the presence of primary osteoblasts; test: Real-time PCR of Hes1, Pu.1 and CEBPα in LSK+ population co-cultured with primary osteoblasts and treated with Wnt3a; type: cell-based, mouse; conditions: Wnt3a 50 ng/ml for 24 hours, co-culture with primary osteoblasts
Protocol: as §3, §4

[6] = βcat(ex3)osb mice, 10 days DBZ, bone marrow and spleen
[7] = βcat(ex3)osb mice, DBZ 2 μmol/kg body weight daily for 10 days
[8] = βcat(ex3)osb mice, six weeks treatment

## C[C@H](NC(=O)Cc1cc(F)cc(F)c1)C(=O)NC1C(=O)N(C)c2ccccc2-c2ccccc21 (stereo partly drawn) [DBZ, (2S)-2-[2-(3,5-difluorophenyl)-acetylamino]-N-(5-methyl-6-oxo-6,7-dihydro-5H-dibenzo[b,-d]azepin-7-yl)-propionamide]
[1]; mice treated 10 days with DBZ, intestine
  Toxic effects (intestinal architecture, goblet cell metaplasia, PAS staining): without any toxic effects
[1]; βcat(ex3)osb mice treated with DBZ versus vehicle
  Survival (Kaplan-Meier): increased survival
[1]; βcat(ex3)osb mice, 10 days DBZ
  Blasts and hypersegmented neutrophils in the blood; infiltration with immature and atypical myeloid cells and atypical micro-megakaryocytes in bone marrow and spleen: not observed
  Bone marrow cellularity: not affected
  LSK and lymphoid-biased progenitors in the bone marrow and LSK/FcgRII/III subset of myeloid progenitors in spleen and bone marrow: returned to normal levels
  Liver histology: appeared normal
  Myeloperoxidase staining in bone marrow, spleen and liver: identical to that of wild type animals
[1]; [6]
  Compromised B-lymphopoiesis: partially rescued
  Defects in the myeloid lineage, erythroid cells, LSK and LT-HSCs populations: reversed
[1]; βcat(ex3)osb mice, 10 days DBZ, long bone sections
  Osteopetrotic phenotype: not affected
[1]; βcat(ex3)osb mice, 10 days DBZ, peripheral blood
  Anemia, peripheral monocytosis, neutrophilia and lymphocytopenia: reversed
[1]; [7]
  BA (basophils): 0.67 ± 0.7%
  BM cell per femur: 18.6 ± 3.5 10^5
  EO (eosinophils): 1.87 ± 1.6%
  HB: 11.2 ± 0.9 g/dL
  HCT: 36.75 ± 3.2%
  LY (lymphocytes): 49.76 ± 4.3%
  MO (monocytes): 7.46 ± 1.2%
  NE: 42.21 ± 4.8%
  Platelet: 650 ± 113.1 10^3/μl
  RBC: 8.06 ± 0.5 ×10^6/μl
  WBC: 3.1 ± 0.5 ×10^3/μl
[2]
  BA (basophils): 0.5 ± 0.2%
  BM cell per femur: 71.5 ± 4.3 10^5
  EO (eosinophils): 1.55 ± 0.2%
  HB: 12.8 ± 0 g/dL
  HCT: 45.90 ± 2.5%
  LY (lymphocytes): 78.54 ± 3.2%
  MO (monocytes): 5.01 ± 0.6%
  NE: 14.41 ± 3.2%
  Platelet: 1119.5 ± 68.5 10^3/μl
  WBC: 3.54 ± 0.5 ×10^3/μl
[3]; mouse, in vivo
  Toxic effect on the intestines: no toxic effect
[3]; [8]
  Anemia, peripheral monocytosis, neutrophilia and lymphocytopenia and defects in the myeloid lineage, erythroid cells, LSK and LT-HSCs populations in the bone marrow: reversal
  Expression of Notch targets Hes1, Hes5, Hey1, and Hey2, and the Hes1 targets, Cebpα and Pu.1: decrease
  Invasion of myeloid cells: no invasion
  LSK and lymphoid-biased progenitors in the bone marrow and LSK/FcgRII/III subset of myeloid progenitors in spleen and bone marrow: return to normal levels
  Myeloperoxidase staining in bone marrow, spleen and liver: identical to that of control animals
  Survival: increased survival

## Wnt3a
[4]
  Expression of Jagged-1 and Magp-2: upregulated
[5]
  Notch signaling in LSK cells (Hes1, Pu.1 and CEBPα expression): stimulated
